ChEMBL document CHEMBL5316290, “Targeted Protein Degradation Induced by HEMTACs Based on HSP90” (J Med Chem, 2023)
Activity calls are given as the source filed them. The rule behind the calls is not given here.

Key:
HFF-1 = assay: Cytotoxicity against human HFF-1 cells assessed as reduction of cell viability incubated for 72 hrs by CCK-8 assay; format: toxicity, cell-based; settings: hff-1, 72 h
[1] = biological target: HSP90/Cyclin-dependent kinase 6 (Mus musculus) (UniProt P07901+Q64261+P11499); assay: HEMTAC activity at HSP90/CDK6 in mouse B16-F10 cells assessed as induction of […] degradation by measuring maximal degradation incubated for 24 hrs by Western blot analysis relative to control; format: cell-based
B16-F10 [2] = assay: Induction of apoptosis in mouse B16-F10 cells assessed as dead cells at 250 nM incubated for 48 hrs by Annexin V-FITC/PI staining based flow cytometry analysis (reference value: 1.75%); format: functional
B16-F10 [3] = assay: Induction of cell cycle arrest in mouse B16-F10 cells assessed as accumulation of cells at G1 phase at 250 nM incubated for 24 hrs by RNase/PI staining based flow cytometry analysis (reference value: 68.89%); format: functional
[4] = Toxicity in C57BL/6J mouse implanted with mouse B16-F10 cells at 20 to 40 mg/kg, ip administered once daily for 2 weeks and measured every 2 days; format: organism-based; settings: in vivo, 336 h, dose 20-40 mg/kg
[5] = biological target: HSP90/Cyclin-dependent kinase 4 (Mus musculus) (UniProt P30285+P07901+P11499); assay: HEMTAC activity at HSP90/CDK4 in mouse B16-F10 cells assessed as induction of CDK4 degradation at 0.1 uM incubated for 24 hrs in presence of palbociclib by Western blot analysis; format: cell-based
B16-F10 [6] = assay: Induction of apoptosis in mouse B16-F10 cells assessed as live cells at 250 nM incubated for 48 hrs by Annexin V-FITC/PI staining based flow cytometry analysis (reference value: 92.85 %); format: functional
B16-F10 [7] = assay: Anticancer activity against mouse B16-F10 cells implanted in C57BL/6J mouse assessed as reduction in tumor growth at 20 to 40 mg/kg, ip administered once daily for 2 weeks and measured every 2 days by vernier caliper method; format: functional, organism-based; settings: dose 20-40 mg/kg
B16-F10 [8] = assay: Induction of cell cycle arrest in mouse B16-F10 cells assessed as accumulation of cells at G2 phase at 125 nM incubated for 24 hrs by RNase/PI staining based flow cytometry analysis (reference value: 16.13%); format: functional
B16-F10 [9] = assay: Binding affinity to HSP90/CDK4 in mouse B16-F10 assessed as ternary complex formation at 5 uM incubated for 6 hrs by co-immunoprecipitation assay; format: cell-based
[10] = biological target: HSP90/Cyclin-dependent kinase 4 (Mus musculus, UniProt P07901+P11499+P30285); assay: HEMTAC activity at HSP90/CDK4 in mouse B16-F10 cells assessed as induction of CDK4 degradation incubated for 24 hrs by Western blot analysis; format: cell-based
B16-F10 [11] = assay: Induction of apoptosis in mouse B16-F10 cells assessed as early apoptotic cells at 250 nM incubated for 48 hrs by Annexin V-FITC/PI staining based flow cytometry analysis (reference value: 3.42%); format: functional
[12] = biological target: Heat shock protein HSP 90-alpha (Homo sapiens, UniProt P07900); assay: Binding affinity to CM5 sensor chip immobilized human HSP90alpha assessed as dissociation constant by SPR analysis

COc1c(C)cnc(Cn2cc(C#CCCn3cc(CNC(=O)CN4CCN(c5ccc(Nc6ncc7c(C)c(C(C)=O)c(=O)n(C8CCCC8)c7n6)nc5)CC4)nn3)c3c(Cl)nc(N)nc32)c1C
Activity (HFF-1): Non-Toxic | Emax [1]: 92% | Activity (B16-F10 [2]): 2.55% | Activity (B16-F10 [3]): 81.26% | Activity [4]: Non-Toxic | Activity [5]: inactive | Activity (B16-F10 [6]): 62.24% | Activity (B16-F10 [7]): Active | Activity (B16-F10 [8]): 18.05% | Activity (B16-F10 [9]): Active | EC50 [10]: 0.026 µM | Activity (B16-F10 [11]): 20.11% | Kd [12]: 0.357 µM
